Measurements from US9707228B2, “Dry powder formulation” (Agency for Science, Technology and Research, priority 2012, dated 2017).
Where a name gives a salt, the structure may show the parent alone.

System: Pseudomonas aeruginosa
Assay: MIC determination via the microdilution method
Assay type: cell-based
Details: read-out: minimum inhibitory concentration (MIC)
From the text: Ciprofloxacin hydrochloride and gatifloxacin hydrochloride were supplied by Junda Pharmaceutical Co. Ltd (of Guangzhou of China). The aqueous solution of ciprofloxacin hydrochloride and gatifloxacin hydrochloride (at a weight ratio of 1:2.5) was obtained by dissolving both drugs together in water. The weight ratio of the individual quinolone in the solution (as well as in the resultant spray-dried particle) was based on the quinolone's minimum inhibitory concentration (MIC). The MIC was experimentally determined and a ratio of the quinolones was obtained as a guideline in developing the final workable proportion. The quinolones' MIC values were important as they provided preliminary guidance on the required therapeutic dose of each quinolone in the binary (SD-CIP/GAT) powder formulation (i.e. combination ratios). The MICs of the various quinolones for the bacteria Pseudomonas aeruginosa different bacteria were determined via the microdilution method and used to determine the desired binary drug proportions. For the bacteria Pseudomonas aeruginosa, since MICCIP:MICGAT is 1:2 (actual values are 0.25 μg/ml:0.5 μg/ml), the binary formulation was composed of CIP:GAT in the ratio of 1:2. […]

MIC	Compound
0.25 µg/mL	O=C(O)c1cn(C2CC2)c2cc(N3CCNCC3)c(F)cc2c1=O [CIP, ciprofloxacin hydrochloride]
0.5 µg/mL	COc1c(N2CCNC(C)C2)c(F)cc2c(=O)c(C(=O)O)cn(C3CC3)c12 (centres unmarked) [GAT, gatifloxacin hydrochloride]
